Laboratory results taken from publication PMC7998669, “7-(2-Anilinopyrimidin-4-yl)-1-benzazepin-2-ones Designed by a “Cut and Glue” Strategy Are Dual Aurora A/VEGF-R Kinase Inhibitors” (Molecules, 2021).

How the values were obtained:
Assay in all cases: radiometric 33PanQinase protein kinase assay
Format in all cases: biochemical
Details in all cases: radiometric assay, 1 µM ATP
Aurora-A = molecular target: T1, Aurora-A (Homo sapiens, UniProt O14965)
T1 construct: host or cells: Sf9 (baculovirus)
T1 sequence (O14965 1-403): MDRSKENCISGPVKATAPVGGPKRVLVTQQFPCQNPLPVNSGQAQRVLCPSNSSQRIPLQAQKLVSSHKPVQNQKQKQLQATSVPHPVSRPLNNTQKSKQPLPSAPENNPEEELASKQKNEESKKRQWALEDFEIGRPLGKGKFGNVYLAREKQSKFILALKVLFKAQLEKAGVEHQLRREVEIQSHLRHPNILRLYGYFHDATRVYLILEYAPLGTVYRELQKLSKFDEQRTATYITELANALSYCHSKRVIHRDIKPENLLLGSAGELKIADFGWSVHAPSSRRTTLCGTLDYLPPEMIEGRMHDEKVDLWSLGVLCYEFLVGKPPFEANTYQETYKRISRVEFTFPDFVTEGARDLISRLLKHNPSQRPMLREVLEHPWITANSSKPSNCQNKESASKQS
Method: (§1) The inhibitory activity of prototype 2a was determined in a panel of 24 tumor-relevant protein kinases using a radiometric assay. Only the kinases Aurora A, VEGF-R2 and VEGF-R3 were inhibited with single digit micromolar IC50 values (Table 2). Structural modifications were then implemented, particularly directed to improve inhibition of Aurora A. The so-designed congeners with small substituents at the aniline ring 2b–2n were examined for inhibition of Aurora A and of VEGF-R2, VEGF-R3 and Aurora B for comparison (Table 3).
(§2) The screening for protein kinase inhibition was performed with the radiometric ^33Panqinase activity assay at Reaction Biology Europe GmbH (Freiburg) using a robotic system (Beckmann Coulter/SagianRoboter) and 96-well plates (FlashPlates, Perkin/Elmer/NEN, Boston, MA, USA). In brief, the transfer of ^33P-phosphate into the substrate was measured with a microplate scintillation counter (Microbeta Trilux, Wallace). Protein kinases were expressed in Sf9 cells as recombinant glutathione S-transferase (GST) or polyhistidine (His)-tagged proteins in baculovirus. Isolation and purification of expressed kinases were performed with affinity chromatography by using GSH agarose (Sigma) or Ni-NTA agarose (Qiagen). The standard solution for each enzyme contained: 60 mM HEPES-NaOH (pH 7.5), 3 mM MgCl2, 3 µM sodium orthovanadate, 1.2 mM DTT, 50 µg/mL PEG20000 and 1 µM [γ-^33P]-ATP (approximately 5 × 10^5 cpm per well). In chronological order the reaction mixture was prepared: 20 µL standard solution, 5 µL ATP solution in water, 5 µL of the compound in 10% DMSO and 20 µL of enzyme/substrate mixture (50:50). Each kinase contained different substrates in different concentrations: 125 ng/50 µL Poly(Glu, Tyr)4:1 for 20 ng/50 µL IGF1-R, 25 ng/50 µL IGF1-R, 20 ng/50 µL EGF-R, 25 ng/50 µL EGF-R, 40 ng/50 µL EGF-R, 10 ng/50 µL EPHB4, 20 ng/50 µL EPHB4, 200 ng/50 µL ERBB2, 10 ng/50 µL SRC, 100 ng/50 µL FAK, 200 ng/50 µL FAK, 50 ng/50 µL VEGF-R2, 100 ng/50 µL VEGF-R3, 200 ng/50 µLTIE2; 250 ng/50 µL Poly(Glu, Tyr)4:1 for 200 ng/50 µL TIE2; 500 ng/50 µL tetra (LRRWSLG) for 50 ng/50 µL Aurora-A, 25 ng/50 µL PAK4, 25 ng/50 µL PDK1; 250 ng/50 µL tetra (LRRWSLG) for 50 ng/50 µL Aurora-B, 200 ng/50 µL Aurora-B; 125 ng/50 µL Histon H1 for 100 ng/50 µL CDK2/CycA; 250 ng/50 µL Rb-CTF for 50 ng/50 µL CDK/CycD1; 500 ng/50 µL Rb-CTF for 50 ng/50 µL CDK4/CycD1; 125 ng/50 µL Poly(ala, Glu, Lys, Tyr)6:2:5:1 for 25 ng/50 µL INS-R, 50 ng/50 µL PDGFR-beta, 100 ng/50 µL PDGFR-beta, 100 ng/50 µL FLT3, 150 ng/50 µL FLT3, 20 ng/50 µL MET, 50 ng/50 µL MET, 100 ng/50 µL MET; 250 ng/50 µL Casein for 200 ng/50 µL CK2-alpha1, 200 ng/50 µL PLK1; 1000 ng/50 µL Casein for 200 ng/50 µL PLK1, 200 ng/50 µL CK2-alpha1; 1000 ng/50 µLGSK3 (14–27) for 100 ng/50 µL AKT1; 125 ng/50 µL p53-CTM for 150 ng/50 µL CK2-alpha1, 200 ng/50 µLCK2-alpha1; 250 ng/50 µL MEK-KM for 20 ng/50 µL B-RAF-VE; autophosphorylation at ARK5, COT and SAK. After incubation (80 min, 30 °C) the reaction was stopped by adding 50 µL 2% (v/v) phosphoric acid to the reaction mixture. The microplate was washed twice with 200 µL 0.9% (v/v) saturated sodium chloride or water. The measured radioactivity, conditioned by the incorporation of [γ-^33P]-phosphate, is proportional to kinase activity. Furthermore, low control and high control were measured to determine the residual activity (%). As low controls, mixtures with substrate, but without enzyme were used to determine the unspecific binding of [γ-^33P]-phosphate to the well plate. Mixtures with enzyme, but without inhibitor were used as high controls to determine maximum enzyme activity. The IC50-values of the distinct compounds were calculated with Quattro Workflow V1.1.0.8 (Quattro Research GmbH, München, Germany). Dose response curves were generated by measurement of the residual activity of ten different inhibitor concentrations (0.1 mM, 30.0 µM, 10 µM, 3.0 µM, 1.0 µM, 0.3 µM, 0.1 µM, 30.0 nM, 10.0 nM and 3.0 nM). […]

Aurora-B = molecular target: T2, Aurora-B (Homo sapiens, UniProt Q96GD4)
T2 construct: host or cells: Sf9 (baculovirus)
Method: as §1, §2

VEGF-R3 = molecular target: T3, VEGF-R3 (Homo sapiens, UniProt P35916)
T3 construct: host or cells: Sf9 (baculovirus)
Method: as §1, §2

VEGF-R2 = molecular target: T4, VEGF-R2 (Homo sapiens, UniProt P35968)
T4 construct: host or cells: Sf9 (baculovirus)
Method: as §1, §2

T4 sequence (P35968 20-1356): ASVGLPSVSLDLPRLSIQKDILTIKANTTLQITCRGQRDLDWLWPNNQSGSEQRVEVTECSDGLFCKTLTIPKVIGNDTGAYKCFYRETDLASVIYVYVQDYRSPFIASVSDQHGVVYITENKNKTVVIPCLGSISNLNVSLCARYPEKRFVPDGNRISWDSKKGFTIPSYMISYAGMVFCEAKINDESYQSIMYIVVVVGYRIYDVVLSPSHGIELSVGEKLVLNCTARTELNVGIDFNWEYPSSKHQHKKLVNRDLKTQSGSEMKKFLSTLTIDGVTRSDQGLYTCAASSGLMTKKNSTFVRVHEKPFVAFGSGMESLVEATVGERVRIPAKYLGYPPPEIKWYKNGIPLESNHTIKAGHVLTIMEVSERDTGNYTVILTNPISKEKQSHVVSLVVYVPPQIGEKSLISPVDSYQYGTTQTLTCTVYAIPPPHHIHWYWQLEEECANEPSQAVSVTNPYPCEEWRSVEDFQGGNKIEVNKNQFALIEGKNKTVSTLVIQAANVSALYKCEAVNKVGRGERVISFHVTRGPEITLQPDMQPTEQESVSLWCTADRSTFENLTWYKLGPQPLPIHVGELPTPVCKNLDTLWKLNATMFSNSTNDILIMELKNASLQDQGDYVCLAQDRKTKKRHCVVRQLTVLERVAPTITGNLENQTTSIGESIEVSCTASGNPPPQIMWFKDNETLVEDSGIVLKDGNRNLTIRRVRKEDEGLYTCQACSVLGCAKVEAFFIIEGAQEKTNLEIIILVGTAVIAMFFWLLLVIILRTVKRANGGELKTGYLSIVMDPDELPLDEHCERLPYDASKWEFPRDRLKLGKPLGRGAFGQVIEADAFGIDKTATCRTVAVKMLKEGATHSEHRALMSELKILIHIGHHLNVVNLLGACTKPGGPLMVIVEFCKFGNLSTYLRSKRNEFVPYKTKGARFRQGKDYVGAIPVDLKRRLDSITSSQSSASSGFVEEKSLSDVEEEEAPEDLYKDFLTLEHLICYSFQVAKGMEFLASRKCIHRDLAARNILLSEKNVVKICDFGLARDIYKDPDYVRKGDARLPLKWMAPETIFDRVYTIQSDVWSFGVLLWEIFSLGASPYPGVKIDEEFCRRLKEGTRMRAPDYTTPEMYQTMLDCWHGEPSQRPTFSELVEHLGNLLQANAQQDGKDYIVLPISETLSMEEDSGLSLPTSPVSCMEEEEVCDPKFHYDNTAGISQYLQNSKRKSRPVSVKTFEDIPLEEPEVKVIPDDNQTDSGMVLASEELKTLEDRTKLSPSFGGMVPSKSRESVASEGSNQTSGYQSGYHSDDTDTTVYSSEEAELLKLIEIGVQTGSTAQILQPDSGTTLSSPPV
T3 sequence (P35916 25-1363): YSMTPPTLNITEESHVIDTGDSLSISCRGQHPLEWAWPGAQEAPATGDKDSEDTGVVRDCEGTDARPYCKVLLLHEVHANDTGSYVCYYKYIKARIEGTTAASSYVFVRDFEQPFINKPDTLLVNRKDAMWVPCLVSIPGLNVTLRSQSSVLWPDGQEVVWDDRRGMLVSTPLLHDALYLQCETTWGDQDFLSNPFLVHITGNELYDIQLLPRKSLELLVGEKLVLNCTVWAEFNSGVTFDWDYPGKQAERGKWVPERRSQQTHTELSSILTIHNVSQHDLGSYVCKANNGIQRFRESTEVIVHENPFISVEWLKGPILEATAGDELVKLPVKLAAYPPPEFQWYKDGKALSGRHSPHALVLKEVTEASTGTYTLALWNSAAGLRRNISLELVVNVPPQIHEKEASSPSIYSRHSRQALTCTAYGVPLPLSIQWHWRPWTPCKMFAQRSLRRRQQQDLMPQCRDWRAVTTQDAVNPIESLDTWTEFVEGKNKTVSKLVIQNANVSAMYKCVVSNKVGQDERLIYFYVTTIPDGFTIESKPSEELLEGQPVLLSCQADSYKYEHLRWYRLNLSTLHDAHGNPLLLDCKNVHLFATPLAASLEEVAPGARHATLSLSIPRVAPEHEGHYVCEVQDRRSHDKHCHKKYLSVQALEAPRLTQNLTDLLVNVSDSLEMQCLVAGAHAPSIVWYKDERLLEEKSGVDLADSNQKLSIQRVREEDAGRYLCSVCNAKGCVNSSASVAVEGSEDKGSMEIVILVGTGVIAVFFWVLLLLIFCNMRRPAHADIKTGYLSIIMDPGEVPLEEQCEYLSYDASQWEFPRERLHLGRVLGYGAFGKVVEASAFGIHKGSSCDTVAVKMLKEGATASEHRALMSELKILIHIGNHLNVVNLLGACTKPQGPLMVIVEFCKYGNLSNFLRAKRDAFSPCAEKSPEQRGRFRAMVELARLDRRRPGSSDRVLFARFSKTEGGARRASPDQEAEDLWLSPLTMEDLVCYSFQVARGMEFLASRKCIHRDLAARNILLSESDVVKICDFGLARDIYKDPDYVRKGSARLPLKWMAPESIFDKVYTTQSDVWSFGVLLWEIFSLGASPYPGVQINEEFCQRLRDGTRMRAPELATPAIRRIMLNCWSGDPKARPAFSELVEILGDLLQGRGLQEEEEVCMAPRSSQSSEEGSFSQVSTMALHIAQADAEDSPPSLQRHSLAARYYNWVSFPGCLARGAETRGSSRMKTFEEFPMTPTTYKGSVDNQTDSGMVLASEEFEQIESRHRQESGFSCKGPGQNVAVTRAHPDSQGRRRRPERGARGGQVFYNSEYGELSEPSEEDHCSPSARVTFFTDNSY
T2 sequence (Q96GD4 whole entry): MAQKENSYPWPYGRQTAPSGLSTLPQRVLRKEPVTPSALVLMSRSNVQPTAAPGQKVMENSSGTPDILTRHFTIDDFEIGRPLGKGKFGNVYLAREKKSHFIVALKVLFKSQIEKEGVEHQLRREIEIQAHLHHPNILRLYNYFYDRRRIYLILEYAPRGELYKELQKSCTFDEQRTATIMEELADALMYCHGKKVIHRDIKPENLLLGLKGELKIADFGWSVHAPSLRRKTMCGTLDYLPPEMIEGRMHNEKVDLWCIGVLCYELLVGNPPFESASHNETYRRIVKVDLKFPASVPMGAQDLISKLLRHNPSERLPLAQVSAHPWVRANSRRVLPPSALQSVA

Q: For O=C1CCCc2cc(-c3ccnc(Nc4ccccc4)n3)ccc2N1 [Compound 2a, 7-(2-Anilinopyrimidin-4-yl)-1,3,4,5-tetrahydro-2H-1-benzazepin-2-one], which IC50 (Aurora-A) is on record?
A: The IC50 was 2400 nM.

Q: What about the IC50 (Aurora-B) of the same compound?
A: Its IC50 is 26 µM.

Q: And the IC50 (VEGF-R3)?
A: Its IC50 is 5900 nM.

Q: And the IC50 (VEGF-R2)?
A: Its IC50 is 2800 nM.

Q: What does the source list for O=C1CCCc2cc(-c3ccnc(Nc4ccc(O)cc4)n3)ccc2N1 [Compound 2e, 7-[2-(4-Hydroxyanilino)pyrimidin-4-yl]-1,3,4,5-tetrahydro-2H-1-benzazepin-2-one]?
A: IC50 (Aurora-A): 990 nM; IC50 (Aurora-B): 3.5 µM; IC50 (VEGF-R3): 1500 nM; IC50 (VEGF-R2): 1100 nM

Q: With COc1ccc(Nc2nccc(-c3ccc4c(c3)CCCC(=O)N4)n2)cc1O [Compound 2n, 7-[2-(3-Hydroxy-4-methoxyanilino)pyrimidin-4-yl]-1,3,4,5-tetrahydro-2H-1-benzazepin-2-one] as the compound, how does the IC50 (Aurora-A) read?
A: Its IC50 is 1400 nM.

Q: And the IC50 (Aurora-B)?
A: Its IC50 is 4.5 µM.

Q: And the IC50 (VEGF-R3)?
A: The IC50 was 550 nM.

Q: What about the IC50 (VEGF-R2) of the same compound?
A: The IC50 was 630 nM.
